From patent US5380740A, “Anti-inflammatory compounds, compositions and method of use thereof” (G. D. Searle & Co., priority 1993, dated 1995) come the findings set out here.

Molecules are shown by their SMILES.

Experiment [1] deals with Human neutrophils. The experiment is described as follows: Human Neutrophil Degranulation Assay (LTB4-induced myeloperoxidase release). The experiment is classed as cell-based. Particulars: LTB4 5×10^-8 M; for Relative Potency, Degranulation: potency relative to compound 1 defined as 1.0. Here is the method: Neutrophils were purified from venous blood of normal human donors using standard techniques of dextran sedimentation, centrifugation on Ficoll-paque® (Pharmacia) or Histopaque® sterile solution (Sigma) and hypotonic lysis of erythrocytes (Boyum, A., Isolation of Leukocytes from Human Blood: Further Observations. Stand, J. Lab. Clin. Invest., 21 (Suppl. 97): 31, 1968). The purity of isolated neutrophils was >95%.
Neutrophil degranulation was determined by measuring the release of myeloperoxidase activity into the incubation medium. Neutrophils (3×10^6) in 1 ml HBSS solution were preincubated with cytochalasin B(5 μg) at 37° C. for 5 minutes, followed by preincubation with test compounds for 7 minutes. Neutrophils were then incubated for 2 to 20 minutes with LTB4 (5×10^-8 M) to induce degranulation. Following incubation, samples were centrifuged and myeloperoxidase was extracted from the cell pellets by sonication in phosphate buffer containing 0.4% Triton X-100. Triton X-100 was also added to the supernatants to a concentration of 0.4%. The supernatants and the pellet--extracts were then assayed spectrophotometrically for myeloperoxidase activity by determining the rate of decomposition of H2 O2 with o-dianisidine as hydrogen donor as described by Renlund, et al. (Renlund, D. G., MacFarlane, J. L., Christensen, R. D., Lynch, R. E., and Rothstein, G., A Quantitative and sensitive Method for Measurement of Myeloperoxidase, Clinical Research 28:75A, 1980). Myeloperoxidase activity released into the supernatant was expressed as the percent of the average total activity (pellet plus supernatant).

Experiment [2] has as its system Human neutrophils. The experiment is described as follows: Modified Boyden Chamber Chemotaxis (LTB4-induced). The class given is cell-based. The following applies: 3×10^-8 M LTB4; for Relative Potency, Chemotaxis: potency relative to compound 1 defined as 1.0. Here is the method: Human neutrophils were isolated from citrated peripheral blood using standard techniques of dextran sedimentation, followed by centrifugation on Histopaque® sterile solution (Sigma) or Ficoll-paque® (Pharmacia) and hypotonic lysis of erythrocytes. A final cell suspension of 3.4×10^6 neutrophils/ml of HEPES-buffered Hanks balanced salt solution (HBSS, pH 7.3) was added to the upper well (0.8 ml) of a modified Boyden chamber (blind well). […] Percent inhibition was calculated from cell counts corrected for random migration by subtracting the mean of the HBSS control.

The target of another experiment is T1, LTB4 receptor (Homo sapiens, UniProt Q15722).
T1 construct: endogenous in cells; host or cells: neutrophils purified from venous blood of normal human donors (purity >95%)
T1 sequence (Q15722 whole entry): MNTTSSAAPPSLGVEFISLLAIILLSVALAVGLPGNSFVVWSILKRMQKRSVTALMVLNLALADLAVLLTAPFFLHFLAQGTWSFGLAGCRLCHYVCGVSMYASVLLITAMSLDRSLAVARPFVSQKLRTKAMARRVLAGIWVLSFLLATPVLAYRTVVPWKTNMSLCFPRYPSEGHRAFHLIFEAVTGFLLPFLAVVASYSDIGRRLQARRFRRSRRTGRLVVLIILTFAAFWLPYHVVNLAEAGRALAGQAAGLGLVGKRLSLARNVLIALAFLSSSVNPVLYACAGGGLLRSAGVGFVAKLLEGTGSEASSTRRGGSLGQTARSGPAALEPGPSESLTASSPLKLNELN
Description: LTB4 Receptor Binding Assay. Particulars: potency relative to compound 1 defined as 1.0; (3H) LTB4 0.6×10^-9 M, human neutrophils. As to the method:
Neutrophils (4-6×10^6) in 1 ml Hanks' balanced salt solution containing 10 mM HEPES buffer (HBSS), pH 7.4 and 30 μM nordihydroguaiaretic acid were incubated with 0.6×10^-9 M (3H) LTB4 in the presence or absence of test compounds. The incubation was carried out at 0° C. for 45 minutes and terminated by adding 5 ml of ice-cold HBSS followed by rapid filtration of incubation mixture under vacuum through GF/C glass fiber filters. The filters were further washed with 10 ml HBSS and radioactivity was determined. Specific binding was defined as the difference between total binding and nonspecific binding which was not displaced by 10^-7 M unlabeled LTB4. All data refer to specific binding.

Turning to `C=CCc1c(OCCCOc2ccc3c(c2CCC)OC(c2nnn[nH]2)CC3)ccc(C(C)=O)c1OC` (centres unmarked), the “Relative Potency, Degranulation” value with Human neutrophils [1] is recorded as 38. Further, the “Relative Potency, Chemotaxis” value in the experiment on Human neutrophils [2] came out at 9. Moreover, at LTB4 receptor, the “Relative Potency, LTB4 Receptor Binding” value came out at 0.8.
Broadly, the IC50 is the concentration at which inhibition is half-maximal. `CCCc1c(OCCCOc2ccc(C(C)=O)c(OC)c2CCC)ccc2c1OC(C(=O)O)CC2` (centres unmarked) [Compound 1, 7-[3,(4-acetyl-3-methoxy-2-propylphenoxy)propoxy]-3,4-dihydro-8-propyl-2H-1-benzopyran-2-carboxylic acid, reference compound]: the IC50 in the experiment with Human neutrophils [1] (Homo sapiens, Neutrophil) was 1500 nM; with Human neutrophils [2] (Homo sapiens, Neutrophil), 1800 nM.
As for `CCCc1c(OCCCOc2ccc(C(C)=O)c(OC)c2CC2CC2)ccc2c1OC(c1nnn[nH]1)CC2` (centres unmarked), the “Relative Potency, Degranulation” value with Human neutrophils [1] came out at 75. The “Relative Potency, Chemotaxis” value in the experiment with Human neutrophils [2] was 22.5. Besides, on LTB4 receptor, the “Relative Potency, LTB4 Receptor Binding” value was 2.
